In PubChem BioAssay AID2060898 (Molecular Pharmacology Branch, DTP, NCI, 2025):
Where “and” joins values, the source holds several entries; their conditions need not be identical. Equal entries are not always repeated.

Test system: 616215-338-R-J1-PDC complex spheroid viability
Assay: Anticancer human tumor 616215-338-R-J1-PDC patient-derived colon adenocarcinoma cell line growth inhibition [RAS]
Details: for viability, T/C: stronger effect = lower value
Outline: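 Multi-cell-type spheroids: tumor cells plus HUVEC endothelial cells and mesenchymal stem cells. RAS-pathway inhibitors were combined with targeted agents, each dosed in half-log steps down from clinical Cmax, or from 10 microM when Cmax was unknown.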

[1] = curve of first compound, second compound 0.000949 µM
[2] = curve of first compound, second compound 0.003 µM
[3] = curve of first compound, second compound 0.00949 µM
[4] = curve of first compound, second compound 0.03 µM
[5] = curve of first compound, second compound 0.0949 µM
[6] = curve of first compound, second compound 0.3 µM
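Further: spheroids exposed to agents for seven days before viability readout.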
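Wherever viability, T/C is given: 100% = DMSO vehicle control viability.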

In the case of `CCC(CC)c1cc(NC2CCC(N)C2)n2nccc2n1` (stereo unspecified), the viability, T/C (compound 0.0316 µM) is reported as 109% [middle of 4 runs], the viability, T/C (compound 0.1 µM) is reported as 99.7% and 102% (2×) and 93.3% and the viability, T/C (compound 0.316 µM) is reported as 93.8% [middle of 4 runs]. The viability, T/C (compound 1 µM) was 107% [middle of 4 runs], the viability, T/C (compound 3.16 µM) was 0.63% [middle of 4 runs] and the viability, T/C (compound 10 µM) was 0.37% [middle of 4 runs]. For the same compound, the IC50 (curve of compound) was 1.8 µM [middle of 4 runs].
Work on `C=CC(=O)N1CCN(c2nc(OCC3CCCN3C)nc3c(F)c(-c4nc(N)cc(C)c4C(F)(F)F)c(Cl)cc23)C(C)C1` (stereo unspecified) + CCn1c(-c2cc(N3CCN(C)CC3)cnc2C(C)OC)c2c3cc(ccc31)-c1csc(n1)CC(NC(=O)C1CC1C)C(=O)N1CCCC(N1)C(=O)OCC(C)(C)C2 yielded an IC50 [1] of over 1000 nM, an IC50 [2] of over 1000 nM and an IC50 [3] of over 1000 nM. The IC50 [4] was under 3.16 nM, the IC50 [5] was under 3.16 nM and the IC50 [6] was under 3.16 nM. It also gave a viability, T/C (second compound 0.000949 µM, first compound 0.00316 µM) of 117%, a viability, T/C (second compound 0.000949 µM, first compound 0.01 µM) of 103% and a viability, T/C (second compound 0.000949 µM, first compound 0.0316 µM) of 108%. For the same compound, the viability, T/C (second compound 0.000949 µM, first compound 0.1 µM) was 110%, the viability, T/C (second compound 0.000949 µM, first compound 0.316 µM) was 109% and the viability, T/C (second compound 0.000949 µM, first compound 1 µM) was 107%. It also gave a viability, T/C (second compound 0.003 µM, first compound 0.00316 µM) of 114%, a viability, T/C (second compound 0.003 µM, first compound 0.01 µM) of 109% and a viability, T/C (second compound 0.003 µM, first compound 0.0316 µM) of 111%. For the same compound, the viability, T/C (second compound 0.003 µM, first compound 0.1 µM) was 109%, the viability, T/C (second compound 0.003 µM, first compound 0.316 µM) was 113% and the viability, T/C (second compound 0.003 µM, first compound 1 µM) was 103%. It also gave a viability, T/C (second compound 0.00949 µM, first compound 0.00316 µM) of 87.8%, a viability, T/C (second compound 0.00949 µM, first compound 0.01 µM) of 77.8% and a viability, T/C (second compound 0.00949 µM, first compound 0.0316 µM) of 81.5%. For the same compound, the viability, T/C (second compound 0.00949 µM, first compound 0.1 µM) was 66.7%, the viability, T/C (second compound 0.00949 µM, first compound 0.316 µM) was 73.8% and the viability, T/C (second compound 0.00949 µM, first compound 1 µM) was 69.3%. It also gave a viability, T/C (second compound 0.03 µM, first compound 0.00316 µM) of 43%, a viability, T/C (second compound 0.03 µM, first compound 0.01 µM) of 55.5% and a viability, T/C (second compound 0.03 µM, first compound 0.0316 µM) of 49.3%. It also gave a viability, T/C (second compound 0.03 µM, first compound 0.1 µM) of 42.7%, a viability, T/C (second compound 0.03 µM, first compound 0.316 µM) of 55.4% and a viability, T/C (second compound 0.03 µM, first compound 1 µM) of 49.4%. The viability, T/C (second compound 0.0949 µM, first compound 0.00316 µM) was 35%, the viability, T/C (second compound 0.0949 µM, first compound 0.01 µM) was 30.8% and the viability, T/C (second compound 0.0949 µM, first compound 0.0316 µM) was 42.2%. The viability, T/C (second compound 0.0949 µM, first compound 0.1 µM) was 37.5%, the viability, T/C (second compound 0.0949 µM, first compound 0.316 µM) was 49.4% and the viability, T/C (second compound 0.0949 µM, first compound 1 µM) was 35.9%. For the same compound, the viability, T/C (second compound 0.3 µM, first compound 0.00316 µM) was 40.3%, the viability, T/C (second compound 0.3 µM, first compound 0.01 µM) was 31.8% and the viability, T/C (second compound 0.3 µM, first compound 0.0316 µM) was 36%. The viability, T/C (second compound 0.3 µM, first compound 0.1 µM) was 42.6%, the viability, T/C (second compound 0.3 µM, first compound 0.316 µM) was 42.8% and the viability, T/C (second compound 0.3 µM, first compound 1 µM) was 43.4%.
`CCc1c2c(nc3ccc(O)cc13)-c1cc3c(c(=O)n1C2)COC(=O)[C@]3(O)CC` + CCn1c(-c2cc(N3CCN(C)CC3)cnc2C(C)OC)c2c3cc(ccc31)-c1csc(n1)CC(NC(=O)C1CC1C)C(=O)N1CCCC(N1)C(=O)OCC(C)(C)C2 showed an IC50 [1] of 12.4 nM, an IC50 [2] of 6.6 nM and an IC50 [3] of 3.33 nM. For the same compound, the IC50 [4] was under 0.949 nM, the IC50 [5] was under 0.949 nM and the IC50 [6] was under 0.949 nM. For the same compound, the viability, T/C (second compound 0.000949 µM, first compound 0.000949 µM) was 109%, the viability, T/C (second compound 0.000949 µM, first compound 0.003 µM) was 104% and the viability, T/C (second compound 0.000949 µM, first compound 0.00949 µM) was 51.5%. It also gave a viability, T/C (second compound 0.000949 µM, first compound 0.03 µM) of 35.6%, a viability, T/C (second compound 0.000949 µM, first compound 0.0949 µM) of 21.2% and a viability, T/C (second compound 0.000949 µM, first compound 0.3 µM) of 13.4%. The viability, T/C (second compound 0.003 µM, first compound 0.000949 µM) was 109%, the viability, T/C (second compound 0.003 µM, first compound 0.003 µM) was 94.8% and the viability, T/C (second compound 0.003 µM, first compound 0.00949 µM) was 29.1%. The viability, T/C (second compound 0.003 µM, first compound 0.03 µM) was 23.5%, the viability, T/C (second compound 0.003 µM, first compound 0.0949 µM) was 21.3% and the viability, T/C (second compound 0.003 µM, first compound 0.3 µM) was 12.1%. For the same compound, the viability, T/C (second compound 0.00949 µM, first compound 0.000949 µM) was 87.6%, the viability, T/C (second compound 0.00949 µM, first compound 0.003 µM) was 52.9% and the viability, T/C (second compound 0.00949 µM, first compound 0.00949 µM) was 21%. The viability, T/C (second compound 0.00949 µM, first compound 0.03 µM) was 22.7%, the viability, T/C (second compound 0.00949 µM, first compound 0.0949 µM) was 18.4% and the viability, T/C (second compound 0.00949 µM, first compound 0.3 µM) was 12.2%. It also gave a viability, T/C (second compound 0.03 µM, first compound 0.000949 µM) of 45.2%, a viability, T/C (second compound 0.03 µM, first compound 0.003 µM) of 29.1% and a viability, T/C (second compound 0.03 µM, first compound 0.00949 µM) of 23.2%. For the same compound, the viability, T/C (second compound 0.03 µM, first compound 0.03 µM) was 19.6%, the viability, T/C (second compound 0.03 µM, first compound 0.0949 µM) was 15.2% and the viability, T/C (second compound 0.03 µM, first compound 0.3 µM) was 8.75%. It also gave a viability, T/C (second compound 0.0949 µM, first compound 0.000949 µM) of 36.2%, a viability, T/C (second compound 0.0949 µM, first compound 0.003 µM) of 28.7% and a viability, T/C (second compound 0.0949 µM, first compound 0.00949 µM) of 18.1%. It also gave a viability, T/C (second compound 0.0949 µM, first compound 0.03 µM) of 17.6%, a viability, T/C (second compound 0.0949 µM, first compound 0.0949 µM) of 14.6% and a viability, T/C (second compound 0.0949 µM, first compound 0.3 µM) of 9.71%. For the same compound, the viability, T/C (second compound 0.3 µM, first compound 0.000949 µM) was 35.1%, the viability, T/C (second compound 0.3 µM, first compound 0.003 µM) was 29.8% and the viability, T/C (second compound 0.3 µM, first compound 0.00949 µM) was 24%. It also gave a viability, T/C (second compound 0.3 µM, first compound 0.03 µM) of 23.1%, a viability, T/C (second compound 0.3 µM, first compound 0.0949 µM) of 17.5% and a viability, T/C (second compound 0.3 µM, first compound 0.3 µM) of 10.5%.
